Assay results as given in publication PMC6895180 (Nature Communications, 2019).
Several values for one entry are separate records, joined by “and”; a condition that tells them apart may be missing. Identical values can stand only once.

Columns and labels:
[1] = system: B48: pentamidine, diminazene and melaminophenyl arsenical resistant T. brucei line; test: microbe, parasite or virus in culture; format: cell-based, Trypanosoma brucei brucei
T. brucei Squib 427 = test: microbe, parasite or virus in culture; format: cell-based, Trypanosoma brucei brucei
[2] = system: T. brucei BSF s427 wildtype cells; test: Growth assays of T. brucei (trypanocidal/trypanostatic effect); format: cell-based, Trypanosoma brucei
Summary of the method: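 Cells were seeded at 1×10^5 cells/mL in HMI-9 with 10% FBS and 2 μM 2'-deoxycoformycin, then counted manually at intervals up to 48 h. For wash-out, cultures at 10^5 cells/mL (37 °C/5% CO2) were split at 8 h and 48 h and resuspended with or without compound, with counts every 24 h (detection limit 10^4 cells/mL).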

P1 transporter = format: cell-based, Trypanosoma brucei; settings: source data; read-out: P1 transporter Ki, AVG
Experimental: Non-specific association of radiolabel with the cell pellet was determined using an identical incubation in the presence of saturating (1 mM) unlabelled adenosine.

Nc1ncnc2c1c(Br)cn2[C@@H]1O[C@H](CO)[C@@H](O)[C@H]1O [Compound 8, 7-bromotubercidin]
EC50 ([1]; Trypanosoma brucei, mean and SEM, n = 3, read-out: B48 EC50): 448 ± 196 nM | RF (B48) ([1]; resistance factor vs Lister 427WT): 1.42 | EC50 (T. brucei Squib 427; Trypanosoma brucei, Alamar blue cell viability assay, mean and SEM, read-out: T. b. brucei EC50): 1200 ± 300 nM | SI (MRC/T.b. brucei) (T. brucei Squib 427; selectivity index): 10 | AVG of cells/mL ([2]; 2xEC50, 2 h, experiment 1): 142500 cells/mL | Cells/mL ([2]; 2xEC50, 2 h, experiment 1): 127500 Cells/mL and 157500 Cells/mL | Counts ([2]; 2xEC50, 2 h, experiment 1): 51 and 63 | AVG of cells/mL ([2]; 2xEC50, 2 h, experiment 2): 155000 cells/mL | Cells/mL ([2]; 2xEC50, 2 h, experiment 2): 145000 Cells/mL and 165000 Cells/mL | Counts ([2]; 2xEC50, 2 h, experiment 2): 58 and 66 | AVG of cells/mL ([2]; 2xEC50, 4 h, experiment 1): 146250 cells/mL | Cells/mL ([2]; 2xEC50, 4 h, experiment 1): 140000 Cells/mL and 152500 Cells/mL | Counts ([2]; 2xEC50, 4 h, experiment 1): 61 and 56 | AVG of cells/mL ([2]; 2xEC50, 4 h, experiment 2): 162500 cells/mL | Cells/mL ([2]; 2xEC50, 4 h, experiment 2): 140000 Cells/mL and 185000 Cells/mL | Counts ([2]; 2xEC50, 4 h, experiment 2): 74 and 56 | AVG of cells/mL ([2]; 2xEC50, 6 h, experiment 1): 147500 cells/mL | Cells/mL ([2]; 2xEC50, 6 h, experiment 1): 132500 Cells/mL and 162500 Cells/mL | Counts ([2]; 2xEC50, 6 h, experiment 1): 53 and 65 | AVG of cells/mL ([2]; 2xEC50, 6 h, experiment 2): 175000 cells/mL | Cells/mL ([2]; 2xEC50, 6 h, experiment 2): 175000 Cells/mL | Counts ([2]; 2xEC50, 6 h, experiment 2): 70 | AVG of cells/mL ([2]; 2xEC50, 8 h, experiment 1): 175000 cells/mL | Cells/mL ([2]; 2xEC50, 8 h, experiment 1): 185000 Cells/mL and 165000 Cells/mL | Counts ([2]; 2xEC50, 8 h, experiment 1): 74 and 66 | AVG of cells/mL ([2]; 2xEC50, 8 h, experiment 2): 166250 cells/mL | Cells/mL ([2]; 2xEC50, 8 h, experiment 2): 180000 Cells/mL and 152500 Cells/mL | Counts ([2]; 2xEC50, 8 h, experiment 2): 72 and 61 | AVG of cells/mL ([2]; 2xEC50, 12 h, experiment 1): 185000 cells/mL | Cells/mL ([2]; 2xEC50, 12 h, experiment 1): 185000 Cells/mL | Counts ([2]; 2xEC50, 12 h, experiment 1): 74 | AVG of cells/mL ([2]; 2xEC50, 12 h, experiment 2): 181250 cells/mL | Cells/mL ([2]; 2xEC50, 12 h, experiment 2): 190000 Cells/mL and 172500 Cells/mL | Counts ([2]; 2xEC50, 12 h, experiment 2): 76 and 69 | AVG of cells/mL ([2]; 2xEC50, 24 h, experiment 1): 211250 cells/mL | Cells/mL ([2]; 2xEC50, 24 h, experiment 1): 227500 Cells/mL and 195000 Cells/mL | Counts ([2]; 2xEC50, 24 h, experiment 1): 91 and 78 | AVG of cells/mL ([2]; 2xEC50, 24 h, experiment 2): 167500 cells/mL | Cells/mL ([2]; 2xEC50, 24 h, experiment 2): 165000 Cells/mL and 170000 Cells/mL | Counts ([2]; 2xEC50, 24 h, experiment 2): 66 and 68 | AVG of cells/mL ([2]; 2xEC50, 36 h, experiment 1): 350000 cells/mL | Cells/mL ([2]; 2xEC50, 36 h, experiment 1): 322500 Cells/mL and 377500 Cells/mL | Counts ([2]; 2xEC50, 36 h, experiment 1): 129 and 151 | AVG of cells/mL ([2]; 2xEC50, 36 h, experiment 2): 212500 cells/mL | Cells/mL ([2]; 2xEC50, 36 h, experiment 2): 220000 Cells/mL and 205000 Cells/mL | Counts ([2]; 2xEC50, 36 h, experiment 2): 88 and 82 | AVG of cells/mL ([2]; 2xEC50, 48 h, experiment 1): 365000 cells/mL | Cells/mL ([2]; 2xEC50, 48 h, experiment 1): 365000 Cells/mL | Counts ([2]; 2xEC50, 48 h, experiment 1): 146 | AVG of cells/mL ([2]; 2xEC50, 48 h, experiment 2): 152500 cells/mL | Cells/mL ([2]; 2xEC50, 48 h, experiment 2): 142500 Cells/mL and 162500 Cells/mL | Counts ([2]; 2xEC50, 48 h, experiment 2): 57 and 65 | effect on T. brucei bloodstream forms in culture (cidal/static) ([2]; 2× and 5× EC50): trypanostatic | AVG of cells/mL ([2]; 5xEC50, 2 h, experiment 1): 118750 cells/mL | Cells/mL ([2]; 5xEC50, 2 h, experiment 1): 130000 Cells/mL and 107500 Cells/mL | Counts ([2]; 5xEC50, 2 h, experiment 1): 52 and 43 | AVG of cells/mL ([2]; 5xEC50, 2 h, experiment 2): 130000 cells/mL | Cells/mL ([2]; 5xEC50, 2 h, experiment 2): 137500 Cells/mL and 122500 Cells/mL | Counts ([2]; 5xEC50, 2 h, experiment 2): 55 and 49 | AVG of cells/mL ([2]; 5xEC50, 4 h, experiment 1): 138750 cells/mL | Cells/mL ([2]; 5xEC50, 4 h, experiment 1): 132500 Cells/mL and 145000 Cells/mL | Counts ([2]; 5xEC50, 4 h, experiment 1): 58 and 53 | AVG of cells/mL ([2]; 5xEC50, 4 h, experiment 2): 130000 cells/mL | Cells/mL ([2]; 5xEC50, 4 h, experiment 2): 125000 Cells/mL and 135000 Cells/mL | Counts ([2]; 5xEC50, 4 h, experiment 2): 54 and 50 | AVG of cells/mL ([2]; 5xEC50, 6 h, experiment 1): 186250 cells/mL | Cells/mL ([2]; 5xEC50, 6 h, experiment 1): 195000 Cells/mL and 177500 Cells/mL | Counts ([2]; 5xEC50, 6 h, experiment 1): 78 and 71 | AVG of cells/mL ([2]; 5xEC50, 6 h, experiment 2): 162500 cells/mL | Cells/mL ([2]; 5xEC50, 6 h, experiment 2): 155000 Cells/mL and 170000 Cells/mL | Counts ([2]; 5xEC50, 6 h, experiment 2): 62 and 68 | AVG of cells/mL ([2]; 5xEC50, 8 h, experiment 1): 160000 cells/mL | Cells/mL ([2]; 5xEC50, 8 h, experiment 1): 162500 Cells/mL and 157500 Cells/mL | Counts ([2]; 5xEC50, 8 h, experiment 1): 65 and 63 | AVG of cells/mL ([2]; 5xEC50, 8 h, experiment 2): 125000 cells/mL | Cells/mL ([2]; 5xEC50, 8 h, experiment 2): 122500 Cells/mL and 127500 Cells/mL | Counts ([2]; 5xEC50, 8 h, experiment 2): 49 and 51 | AVG of cells/mL ([2]; 5xEC50, 12 h, experiment 1): 176250 cells/mL | Cells/mL ([2]; 5xEC50, 12 h, experiment 1): 190000 Cells/mL and 162500 Cells/mL | Counts ([2]; 5xEC50, 12 h, experiment 1): 76 and 65 | AVG of cells/mL ([2]; 5xEC50, 12 h, experiment 2): 166250 cells/mL | Cells/mL ([2]; 5xEC50, 12 h, experiment 2): 175000 Cells/mL and 157500 Cells/mL | Counts ([2]; 5xEC50, 12 h, experiment 2): 70 and 63 | AVG of cells/mL ([2]; 5xEC50, 24 h, experiment 1): 146250 cells/mL | Cells/mL ([2]; 5xEC50, 24 h, experiment 1): 135000 Cells/mL and 157500 Cells/mL | Counts ([2]; 5xEC50, 24 h, experiment 1): 54 and 63 | AVG of cells/mL ([2]; 5xEC50, 24 h, experiment 2): 126250 cells/mL | Cells/mL ([2]; 5xEC50, 24 h, experiment 2): 115000 Cells/mL and 137500 Cells/mL | Counts ([2]; 5xEC50, 24 h, experiment 2): 46 and 55 | AVG of cells/mL ([2]; 5xEC50, 36 h, experiment 1): 146250 cells/mL | Cells/mL ([2]; 5xEC50, 36 h, experiment 1): 147500 Cells/mL and 145000 Cells/mL | Counts ([2]; 5xEC50, 36 h, experiment 1): 59 and 58 | AVG of cells/mL ([2]; 5xEC50, 36 h, experiment 2): 138750 cells/mL | Cells/mL ([2]; 5xEC50, 36 h, experiment 2): 145000 Cells/mL and 132500 Cells/mL | Counts ([2]; 5xEC50, 36 h, experiment 2): 58 and 53 | AVG of cells/mL ([2]; 5xEC50, 48 h, experiment 1): 112500 cells/mL | Cells/mL ([2]; 5xEC50, 48 h, experiment 1): 112500 Cells/mL | Counts ([2]; 5xEC50, 48 h, experiment 1): 45 | AVG of cells/mL ([2]; 5xEC50, 48 h, experiment 2): 75000 cells/mL | Cells/mL ([2]; 5xEC50, 48 h, experiment 2): 65000 Cells/mL and 85000 Cells/mL | Counts ([2]; 5xEC50, 48 h, experiment 2): 26 and 34 | Ki (P1 transporter): 7100 nM
